Test systems include A498; ACHN; CCRF-CEM; COLO 205; HCT-116; HCT-15; HL-60; IGROV-1; MOLT-4; NCI-H23; OVCAR-4; OVCAR-5; SF-268; SF-539; SK-MEL-28; SK-MEL-5; SNB-19; UACC-257; UO-31; 786-0.
Holding throughout (test): NCI tumour cell line growth inhibition, 48 h

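96-well plates; 48 h exposure; 5 concentrations. Endpoints by linear interpolation between flanking doses. Not reached: highest tested concentration assigned. Here, GI50 denotes the concentration required for 50% inhibition of growth.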 Active and inactive are the calls of the source. No stated cut-off is given here; in the data, active = GI50 up to about 1.1 µM and inactive = higher.

In the case of `CC(=O)c1cccc(NC(=O)C(=O)C(C(=O)c2ccccc2F)C2OC(=O)c3ccccc32)c1` (stereo not given), the GI50 is 91.6 µM (inactive) with A498; 37.7 µM (inactive) in the experiment with ACHN; 14.8 µM (inactive) in the experiment with CCRF-CEM; 18.6 µM (inactive) in the experiment with COLO 205; 33.3 µM (inactive) in the experiment on HCT-116; 30.2 µM in the experiment on HCT-15. For the same compound, the GI50 was 24 µM (inactive) in the experiment with HL-60; 74.8 µM (inactive) with IGROV-1; 22.8 µM (inactive) in the experiment with MOLT-4; 33.8 µM (inactive) with NCI-H23; 32.5 µM (inactive) in the experiment on OVCAR-4; 64.3 µM (inactive) with OVCAR-5. In addition, the GI50 is 34.3 µM (inactive) in the experiment with SF-268; > 10 µM (inactive) in the experiment with SF-539; 50.9 µM (inactive) in the experiment with SK-MEL-28; 64 µM (inactive) in the experiment with SK-MEL-5; 32.1 µM (inactive) with SNB-19; 73.5 µM (inactive) with UACC-257. The GI50 in the experiment on UO-31 was 34.4 µM (inactive).
Regarding `CN=S(=O)(C[C@]1(O)CC2OC1C1OC(C)(C)OC21)c1ccccc1` (stereo not given in full), the GI50 in the experiment on 786-0, with A498, in the experiment with ACHN, with CCRF-CEM, in the experiment on COLO 205 and in the experiment with HCT-116 was > 100 µM (inactive) each time. For the same compound, the GI50 in the experiment on HCT-15 was over 100 µM; in the experiment with HL-60, > 100 µM (inactive); in the experiment on IGROV-1, > 100 µM (inactive); in the experiment on MOLT-4, > 100 µM (inactive); in the experiment on NCI-H23 it was > 100 µM (inactive); in the experiment on OVCAR-4, > 100 µM (inactive). The GI50 in the experiment on OVCAR-5, in the experiment with SF-268, in the experiment on SF-539, in the experiment on SK-MEL-28, with SK-MEL-5 and in the experiment on SNB-19 was > 100 µM (inactive) each time. Moreover, in the experiment on UACC-257, the GI50 is > 100 µM (inactive).
For `CN(C)C(=S)SCC(N)=O`, the GI50 in the experiment with 786-0, with A498, in the experiment on ACHN, in the experiment with CCRF-CEM, in the experiment on COLO 205 and in the experiment on HCT-116 was > 100 µM (inactive) throughout. Also, the GI50 with HCT-15 is over 100 µM; in the experiment on HL-60, > 100 µM (inactive); in the experiment on IGROV-1, > 100 µM (inactive); in the experiment on MOLT-4 it was > 100 µM (inactive); in the experiment on NCI-H23, > 100 µM (inactive); in the experiment on OVCAR-4 it was > 100 µM (inactive). The GI50 is > 100 µM (inactive) in the experiment with OVCAR-5; > 100 µM (inactive) in the experiment on SF-268; > 100 µM (inactive) with SF-539; > 100 µM (inactive) in the experiment with SK-MEL-28; 65.2 µM (inactive) in the experiment with SK-MEL-5; > 100 µM (inactive) in the experiment on SNB-19. In the experiment on UACC-257, the GI50 was > 100 µM (inactive).
With `Cc1ccc(-c2nnc3s/c(=C\c4ccc(N(C)C)cc4)c(=O)n23)cc1`, the GI50 in the experiment with 786-0 is > 100 µM (inactive); in the experiment on A498, 89.9 µM (inactive); in the experiment on ACHN it was > 100 µM (inactive); in the experiment with CCRF-CEM, > 100 µM (inactive); in the experiment with COLO 205, > 100 µM (inactive); in the experiment with HCT-116 it was > 100 µM (inactive). Moreover, the GI50 in the experiment with HL-60, with IGROV-1, in the experiment with MOLT-4, in the experiment on NCI-H23, in the experiment on OVCAR-4 and with OVCAR-5 was > 100 µM (inactive) throughout. Also, the GI50 is > 100 µM (inactive) in the experiment on SF-268; > 100 µM (inactive) with SF-539; > 100 µM (inactive) in the experiment with SK-MEL-28; > 100 µM (inactive) with SK-MEL-5; > 100 µM (inactive) with SNB-19; 11.7 µM (inactive) with UACC-257. In addition, the GI50 with UO-31 is > 100 µM (inactive).
For the compound `COc1ccc(-c2cc(=O)c3c(OC)c(O)c(OC)cc3o2)cc1`, the GI50 was 47.4 µM (inactive) in the experiment with 786-0; 30 µM (inactive) with A498; 30.5 µM (inactive) with ACHN; 38.4 µM (inactive) with CCRF-CEM; 49 µM (inactive) with COLO 205; 46.8 µM (inactive) in the experiment with HCT-116. In addition, the GI50 in the experiment on HCT-15 is 35 µM; in the experiment with HL-60 it was 52 µM (inactive); in the experiment on IGROV-1, 33 µM (inactive); with MOLT-4 it was 59.3 µM (inactive); in the experiment with NCI-H23, 48.5 µM (inactive); in the experiment with OVCAR-4 it was 40.4 µM (inactive). The GI50 in the experiment on OVCAR-5 was > 100 µM (inactive); with SF-268 it was 91.4 µM (inactive); in the experiment with SF-539, 77.4 µM (inactive); in the experiment on SK-MEL-28, > 100 µM (inactive); with SK-MEL-5 it was 23.4 µM (inactive); with SNB-19, 58.7 µM (inactive). The GI50 in the experiment with UACC-257 is 36.1 µM (inactive); with UO-31, 30.7 µM (inactive).
For the compound `O=C1C=C(Br)c2c(-c3ccccc3)oc3cccc1c23`, the GI50 is 51.8 µM (inactive) with 786-0; > 75.7 µM (inactive) with A498; 49 µM (inactive) with ACHN; 7.48 µM (inactive) in the experiment on CCRF-CEM; > 63.1 µM (inactive) in the experiment on COLO 205; 25.2 µM (inactive) in the experiment with HCT-116. The GI50 in the experiment on HCT-15 was over 45.7 µM; in the experiment with HL-60, 19.1 µM (inactive); in the experiment with IGROV-1 it was 32.3 µM (inactive); in the experiment with MOLT-4 it was > 41.5 µM (inactive); with NCI-H23, > 52.6 µM (inactive); in the experiment with OVCAR-4, 7.5 µM (inactive). In addition, the GI50 was > 100 µM (inactive) in the experiment on OVCAR-5; 20.2 µM (inactive) in the experiment on SF-268; 23.2 µM (inactive) in the experiment with SF-539; > 93.5 µM (inactive) in the experiment with SK-MEL-28; 54.3 µM (inactive) with SK-MEL-5; 42.1 µM (inactive) in the experiment on SNB-19. Moreover, the GI50 is > 100 µM (inactive) in the experiment on UACC-257 and > 61.2 µM (inactive) in the experiment on UO-31.
Regarding `C/C(=C/c1c(C)[nH]c(=O)[nH]c1=O)C(=O)O`, the GI50 with A498 is > 1370 µM (inactive); with CCRF-CEM it was > 1370 µM (inactive); in the experiment on COLO 205, > 1370 µM (inactive); in the experiment with HCT-116, > 1370 µM (inactive); in the experiment on HCT-15, over 1370 µM; in the experiment on HL-60 it was > 1370 µM (inactive). In addition, the GI50 in the experiment with IGROV-1 is > 1370 µM (inactive); in the experiment on MOLT-4, > 1370 µM (inactive); in the experiment with NCI-H23 it was > 1370 µM (inactive); with OVCAR-4, > 1370 µM (inactive); in the experiment with OVCAR-5 it was > 1260 µM (inactive); in the experiment with SF-268, > 1370 µM (inactive). Moreover, the GI50 in the experiment with SF-539, in the experiment with SK-MEL-28, in the experiment on SK-MEL-5, in the experiment on SNB-19, with UACC-257 and in the experiment with UO-31 was > 1370 µM (inactive) in each case.
As to `Cc1cc(S(=O)(=O)Nc2nncn2-c2ccc(Cl)cc2)c(S)cc1Cl`, the GI50 with 786-0, in the experiment on A498, in the experiment with ACHN, in the experiment with CCRF-CEM, in the experiment on COLO 205 and with HCT-116 was > 10 µM (inactive) throughout. Further, the GI50 in the experiment on HCT-15 was over 10 µM; with HL-60 it was > 10 µM (inactive); in the experiment on IGROV-1 it was > 10 µM (inactive); in the experiment with MOLT-4, > 10 µM (inactive); in the experiment with NCI-H23 it was > 10 µM (inactive); in the experiment with OVCAR-4, > 10 µM (inactive). Moreover, the GI50 in the experiment with OVCAR-5, with SF-268, in the experiment on SF-539, with SK-MEL-28, with SK-MEL-5 and in the experiment with SNB-19 was > 10 µM (inactive) in each case. The GI50 in the experiment on UACC-257 was > 10 µM (inactive).
Consider `CCOC(=O)c1nc2ccc(C(F)(F)F)cc2nc1NCc1ccc(Cl)c(Cl)c1`, for which the GI50 in the experiment on 786-0 was 25.1 µM (inactive); with A498 it was 30.2 µM (inactive); with ACHN, 22.5 µM (inactive); in the experiment on CCRF-CEM, > 100 µM (inactive); in the experiment on COLO 205, 31.8 µM (inactive); in the experiment on HCT-116, 27 µM (inactive). The GI50 is 36.1 µM with HCT-15; 41.5 µM (inactive) in the experiment with HL-60; 20.7 µM (inactive) in the experiment on IGROV-1; > 100 µM (inactive) in the experiment with MOLT-4; 40 µM (inactive) in the experiment with NCI-H23; 21 µM (inactive) in the experiment on OVCAR-4. The GI50 with OVCAR-5 is > 100 µM (inactive); in the experiment with SF-268, 39.9 µM (inactive); in the experiment on SF-539, 61.9 µM (inactive); in the experiment with SK-MEL-5 it was 31.9 µM (inactive); in the experiment on SNB-19, 28.3 µM (inactive); with UACC-257 it was 42.4 µM (inactive). For the same compound, the GI50 in the experiment on UO-31 is 45 µM (inactive).
For the compound `CC(=O)c1nccc2c1c(C)nc1ccccc12`, the GI50 is 48 µM (inactive) in the experiment with A498; > 100 µM (inactive) in the experiment with ACHN; 16.4 µM (inactive) in the experiment with CCRF-CEM; > 100 µM (inactive) in the experiment on COLO 205; 64.3 µM (inactive) with HCT-116; 58.9 µM in the experiment on HCT-15. Further, the GI50 with HL-60 is 67.8 µM (inactive); in the experiment on IGROV-1, 70 µM (inactive); in the experiment with MOLT-4 it was 44.6 µM (inactive); with NCI-H23, 79.8 µM (inactive); in the experiment with OVCAR-4 it was > 100 µM (inactive); in the experiment with OVCAR-5, > 100 µM (inactive). In addition, the GI50 in the experiment on SF-268 was 64.3 µM (inactive); in the experiment with SF-539, > 100 µM (inactive); in the experiment on SK-MEL-28 it was > 100 µM (inactive); in the experiment with SK-MEL-5, 60.8 µM (inactive); in the experiment on SNB-19 it was > 100 µM (inactive); in the experiment on UACC-257, > 100 µM (inactive). Further, in the experiment on UO-31, the GI50 is 55.7 µM (inactive).
Consider `CCOC(=O)c1nc2ccccc2n(CC)c1=O`, for which the GI50 with A498 is > 100 µM (inactive); in the experiment on ACHN, > 100 µM (inactive); with CCRF-CEM it was > 100 µM (inactive); with COLO 205, > 100 µM (inactive); in the experiment on HCT-116 it was > 100 µM (inactive); in the experiment with HCT-15, over 100 µM. Also, the GI50 in the experiment with HL-60, with IGROV-1, in the experiment with MOLT-4, with NCI-H23, with OVCAR-4 and in the experiment with OVCAR-5 was > 100 µM (inactive) throughout. For the same compound, the GI50 in the experiment on SF-268, in the experiment with SF-539, with SK-MEL-28, in the experiment on SK-MEL-5, in the experiment with SNB-19 and in the experiment on UACC-257 was > 100 µM (inactive) throughout. Also, the GI50 with UO-31 was > 100 µM (inactive).

For the origin of these results see ChEMBL document CHEMBL1201862, “PubChem BioAssay data set” (2004).
